Tests used:
[1] = test system: synthesis of LTB4 in human whole blood; experiment: human whole blood LTB4 production inhibition assay; assay type: cell-based; details: calcimycin stimulated, read-out: hWB LTB4 IC50
Description: Compounds are additionally tested in a human whole blood assay to determine their ability to inhibit the synthesis of LTB4 in a cellular system. Compounds are combined with heparinized human whole blood and incubated for 15 minutes at 37° C. Calcimycin (20 μM final, prepared in phosphate-buffered saline, pH 7.4) is then added and the mixture is incubated for another 30 minutes at 37° C. The samples are centrifuged for 5 min at low speed (1500×g) and the plasma layer is removed. Plasma LTB4 concentrations are then measured using an antibody-based homogenous time-resolved fluorescence method (CisBio, Bedford, Mass.).

[2] = biological target: T1, recombinant human FLAP protein (Homo sapiens, UniProt P20292); experiment: FLAP binding assay (Scintillation Proximity Assay, displacement of [125I]L-691,831); details: read-out: FLAP SPA IC50
T1 construct: made in house; host or cells: Sf9 insect cells (100,000xg membrane fraction used)
T1 sequence (P20292 1-161): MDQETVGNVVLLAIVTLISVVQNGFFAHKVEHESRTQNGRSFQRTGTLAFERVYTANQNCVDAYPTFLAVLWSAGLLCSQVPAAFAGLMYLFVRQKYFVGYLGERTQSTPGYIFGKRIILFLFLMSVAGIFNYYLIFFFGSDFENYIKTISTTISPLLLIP
Description: Compounds are assessed for the ability to bind to FLAP in a binding assay that measures compound-specific displacement of an iodinated (^125I) FLAP inhibitor via a Scintillation Proximity Assay format (adapted from S. Charleson et al., Mol. Pharmacol., 1992, 41, 873-879).
Cell pellets produced from sf9 insect cells expressing recombinant human FLAP protein are resuspended in buffer A [15 mM Tris-HCl (pH 7.5), 2 mM MgCl2, 0.3 mM EDTA, 1 mM PMSF]. The cells are lysed with a Dounce homogenizer and the material is centrifuged at 10,000×g for 10 minutes. The supernatant is then collected and centrifuged at 100,000×g for 60 minutes. To prepare membrane protein for an assay, an aliquot of the 100,000×g pellet is resuspended in 1 ml of buffer A, Dounce homogenized, and finally subjected to polytron mixing (30 seconds). Membrane protein (25 μl, 5 μg) is mixed with WGA SPA beads (Amersham) and stirred for 1 h. […] (final concentrations: beads, 200 μg/well; protein, 5 μg/well; [^125I] probe, 0.08 nM/well (17 nCi/well). The plates are shaken for 2 h before reading on a Microbeta plate reader. Non-specific binding is determined by the addition of 10 μM cold L-691,831 compound.

Structure (SMILES): CC(O)Cn1cc(-c2nc(C(C)(c3ccc(-c4cnc(N)nc4)nc3)C(C)C)no2)cn1 (stereo not shown) [Example 1, 1-[4-(3-{2-[6-(2-aminopyrimidin-5-yl)pyridin-3-yl]-3-methylbutan-2-yl}-1,2,4-oxadiazol-5-yl)-1H-pyrazol-1-yl]propan-2-ol]
- IC50 [1]: 54 nM
- IC50 [2]: 8.3 nM

Structure (SMILES): CC(C)C(C)(c1ccc(-c2cnc(N)nc2)nc1)c1noc(-c2cnn(CC(C)(C)O)c2)n1 (stereo not shown) [Example 2, 1-[4-(3-{2-[6-(2-aminopyrimidin-5-yl)pyridin-3-yl]-3-methylbutan-2-yl}-1,2,4-oxadiazol-5-yl)-1H-pyrazol-1-yl]-2-methylpropan-2-ol]
- IC50 [1]: 74 nM
- IC50 [2]: 10 nM

Structure (SMILES): CC(C)C(C)(c1ccc(-c2cnc(N)nc2)nc1)c1noc(-c2cnn(C)c2)n1 (stereo not shown) [Example 3, 5-(5-{3-methyl-2-[5-(1-methyl-1H-pyrazol-4-yl)-1,2,4-oxadiazol-3-yl]butan-2-yl}pyridin-2-yl)pyrimidin-2-amine]
- IC50 [1]: 68 nM
- IC50 [2]: 4.7 nM

Structure (SMILES): CC(C)[C@](C)(c1ccc(-c2cnc(N)nc2)nc1)c1noc(-c2cnn(C)c2)n1 [Example 4, 5-(5-{(2R)-3-methyl-2-[5-(1-methyl-1H-pyrazol-4-yl)-1,2,4-oxadiazol-3-yl]butan-2-yl}pyridin-2-yl)pyrimidin-2-amine]
- IC50 [1]: 20 nM
- IC50 [2]: 3 nM

Structure (SMILES): CC(C)[C@@](C)(c1ccc(-c2cnc(N)nc2)nc1)c1noc(-c2cnn(C)c2)n1 [Example 5, 5-(5-{(2S)-3-methyl-2-[5-(1-methyl-1H-pyrazol-4-yl)-1,2,4-oxadiazol-3-yl]butan-2-yl}pyridin-2-yl)pyrimidin-2-amine]
- IC50 [1]: 750 nM
- IC50 [2]: 76.2 nM

Structure (SMILES): CC(C)C(C)(c1ccc(-c2cnc(N)nc2)nc1)c1noc(-c2cnn(C(C)(C)CO)c2)n1 (stereo not shown) [Example 6, 2-[4-(3-{2-[6-(2-aminopyrimidin-5-yl)pyridin-3-yl]-3-methylbutan-2-yl}-1,2,4-oxadiazol-5-yl)-1H-pyrazol-1-yl]-2-methylpropan-1-ol]
- IC50 [1]: 220 nM
- IC50 [2]: 8.6 nM

Structure (SMILES): CC(C)C(C)(c1ccc(-c2cnc(N)nc2)nc1)c1noc(-c2cnn(CC(=O)N(C)C)c2)n1 (stereo not shown) [Example 7, 2-[4-(3-{2-[6-(2-aminopyrimidin-5-yl)pyridin-3-yl]-3-methylbutan-2-yl}-1,2,4-oxadiazol-5-yl)-1H-pyrazol-1-yl]-N,N-dimethylacetamide]
- IC50 [1]: 180 nM
- IC50 [2]: 14.4 nM

Structure (SMILES): COCCn1cc(-c2nc(C(C)(c3ccc(-c4cnc(N)nc4)nc3)C(C)C)no2)cn1 (stereo not shown) [Example 8, 5-[5-(2-{5-[1-(2-methoxyethyl)-1H-pyrazol-4-yl]-1,2,4-oxadiazol-3-yl}-3-methylbutan-2-yl)pyridin-2-yl]pyrimidin-2-amine]
- IC50 [1]: 68 nM
- IC50 [2]: 6.3 nM

Structure (SMILES): CC(C)C(C)(c1ccc(-c2cnc(N)nc2)nc1)c1noc(-c2cnn(C3COC3)c2)n1 (stereo not shown) [Example 9, 5-[5-(3-methyl-2-{5-[1-(oxetan-3-yl)-1H-pyrazol-4-yl]-1,2,4-oxadiazol-3-yl}butan-2-yl)pyridin-2-yl]pyrimidin-2-amine]
- IC50 [1]: 25 nM
- IC50 [2]: 5.9 nM

Structure (SMILES): CC(C)(O)Cn1cc(-c2nc(C(C)(c3ccc(-c4cnc(N)nc4)nc3)C3CC3)no2)cn1 (stereo not shown) [Example 66, 1-[4-(3-{1-[6-(2-aminopyrimidin-5-yl)pyridin-3-yl]-1-cyclopropylethyl}-1,2,4-oxadiazol-5-yl)-1H-pyrazol-1-yl]-2-methylpropan-2-ol]
- IC50 [1]: 52 nM

Structure (SMILES): CC(C)(O)Cn1cc(-c2nc([C@@](C)(c3ccc(-c4cnc(N)nc4)nc3)C3CC3)no2)cn1 [Example 81, 1-[4-(3-{(1R)-1-[6-(2-aminopyrimidin-5-yl)pyridin-3-yl]-1-cyclopropylethyl}-1,2,4-oxadiazol-5-yl)-1H-pyrazol-1-yl]-2-methylpropan-2-ol]
- IC50 [1]: 41 nM

Structure (SMILES): CC(C)(O)Cn1cc(-c2nc([C@](C)(c3ccc(-c4cnc(N)nc4)nc3)C3CC3)no2)cn1 [Example 82, 1-[4-(3-{(1S)-1-[6-(2-aminopyrimidin-5-yl)pyridin-3-yl]-1-cyclopropylethyl}-1,2,4-oxadiazol-5-yl)-1H-pyrazol-1-yl]-2-methylpropan-2-ol]
- IC50 [1]: 1200 nM

Structure (SMILES): CC(C)(O)Cn1cc(-c2nc([C@@](C)(c3ccc(-c4cnc(N)c(C#N)c4)nc3)C3CC3)no2)cn1 [Example 162, 6′-Amino-5-((R)-1-cyclopropyl-1-{5-[1-(2-hydroxy-2-methyl-propyl)-1H-pyrazol-4-yl]-[1,2,4]oxadiazol-3-yl}-ethyl)-[2,3′]bipyridinyl-5′-carbonitrile]
- IC50 [1]: 319 nM

Structure (SMILES): CC(C)(O)Cn1cc(-c2nc([C@@](C)(c3ccc(-c4cnc5c(c4)OCCN5)nc3)C3CC3)no2)cn1 [Example 167, 1-[4-(3-{(R)-1-Cyclopropyl-1-[6-(3,4-dihydro-2H-pyrido[3,2-b][1,4]oxazin-7-yl)-pyridin-3-yl]-ethyl}-[1,2,4]oxadiazol-5-yl)-pyrazol-1-yl]-2-methyl-propan-2-ol]
- IC50 [1]: 171 nM

Structure (SMILES): CC(C)(O)Cn1cc(-c2nc([C@@](C)(c3ccc(-c4cnc5[nH]ccc5n4)nc3)C3CC3)no2)cn1 [Example 168, 1-[4-(3-{(R)-1-Cyclopropyl-1-[6-(5H-pyrrolo[2,3-b]pyrazin-2-yl)-pyridin-3-yl]-ethyl}-[1,2,4]oxadiazol-5-yl)-pyrazol-1-yl]-2-methyl-propan-2-ol]
- IC50 [1]: 63 nM

Structure (SMILES): CNc1ncc(-c2ccc([C@](C)(c3noc(-c4cnn(C5CCOCC5)c4)n3)C3CC3)cn2)cn1 [Example 169, {5-[5-((R)-1-Cyclopropyl-1-{5-[1-(tetrahydro-pyran-4-yl)-1H-pyrazol-4-yl]-[1,2,4]oxadiazol-3-yl}-ethyl)-pyridin-2-yl]-pyrimidin-2-yl}-methyl-amine]
- IC50 [1]: 105 nM

Structure (SMILES): CNc1cnc(-c2ccc([C@](C)(c3noc(-c4cnn(C)c4)n3)C3CC3)cn2)cn1 [Example 170, [5-(5-{(R)-1-Cyclopropyl-1-[5-(1-methyl-1H-pyrazol-4-yl)-[1,2,4]oxadiazol-3-yl]-ethyl}-pyridin-2-yl)-pyrazin-2-yl]-methyl-amine]
- IC50 [1]: 112 nM

Structure (SMILES): C[C@@](c1ccc(-c2cnc(N)nc2)nc1)(c1noc(-c2cnn(C3CCOCC3)c2)n1)C1CC1 [Example 171, 5-[5-((R)-1-Cyclopropyl-1-{5-[1-(tetrahydro-pyran-4-yl)-1H-pyrazol-4-yl]-[1,2,4]oxadiazol-3-yl}ethyl)-pyridin-2-yl]-pyrimidin-2-ylamine]
- IC50 [1]: 119 nM

Structure (SMILES): CNc1ncc(-c2ccc([C@](C)(c3noc(-c4cnn(C)c4)n3)C3CC3)cn2)cn1 [Example 172, [5-(5-{(R)-1-Cyclopropyl-1-[5-(1-methyl-1H-pyrazol-4-yl)-[1,2,4]oxadiazol-3-yl]ethyl}-pyridin-2-yl)-pyrimidin-2-yl]-methyl-amine]
- IC50 [1]: 104 nM

Structure (SMILES): CNc1cnc(-c2ccc([C@](C)(c3noc(-c4cnn(C5CCOCC5)c4)n3)C3CC3)cn2)cn1 [Example 173, {5-[5-((R)-1-Cyclopropyl-1-{5-[1-(tetrahydro-pyran-4-yl)-1H-pyrazol-4-yl]-[1,2,4]oxadiazol-3-yl}-ethyl)-pyridin-2-yl]-pyrazin-2-yl}-methyl-amine]
- IC50 [1]: 221 nM

Structure (SMILES): C[C@@](c1ccc(-c2cnc(N)cn2)nc1)(c1noc(-c2cnn(C3CCOCC3)c2)n1)C1CC1 [Example 174]
- IC50 [1]: 53 nM

Structure (SMILES): CNc1ncc(-c2ccc([C@](C)(c3noc(-c4cnn(CC(=O)N(C)C)c4)n3)C3CC3)cn2)cn1 [Example 176, 2-[4-(3-{(R)-1-Cyclopropyl-1-[6-(2-methylamino-pyrimidin-5-yl)-pyridin-3-yl]-ethyl}-[1,2,4]oxadiazol-5-yl)-pyrazol-1-yl]-N,N-dimethyl-acetamide]
- IC50 [1]: 267 nM
